# Patent publication US20180369203A1, “METHODS OF TREATING CANCER BY ADMINISTERING A MEK INHIBITOR IN COMBINATION WITH A PROTEASOME INHIBITOR” (The Jackson Laboratory, priority 2015, published 2018)
# Legend:
# A2058 cells = experiment: In vivo CR administration in A2058 xenograft with or without combined treatment; parameters: species or system NOD/SCID mice
# Method: FIGS. 7A-H show amyloidogenesis suppresses tumor growth. (A) Sections of melanomas receiving combined treatment were stained with cleaved caspase 3 antibodies followed by CR staining Arrowheads and arrows indicate condensed and fragmented nuclei, respectively. Scale bar: 50 μm. (B) 1×10^6 A2058 cells were s.c. injected into NOD/SCID mice. After 7 days, mice were treated with 1 mg/30 g CR via i.p. injection one day prior to combined treatment. Tumor volumes were measured weekly (mean±SD, ANOVA). […] Lysis buffer containing CR served as a positive control. (D) Kaplan-Meier survival curves were compared (Log-rank test). (E and F) Both detergent-soluble and -insoluble fractions of tumor lysates were used to quantitate amyloids, 3 tumors per group (mean±SD, n=3, Student's t-test). (G) Proteins were detected by immunoblotting, 3 tumors per group. (H) Schematic depiction of the interplay among MEK, ERK, and HSF1, and its role in regulating proteome stability. Balanced proteostasis suppresses toxic protein aggregation and amyloidogenesis, thereby facilitating tumorigenesis. See also FIG. 14.
# This figure is related to FIG. 7. (A) CR treatment stimulates in vivo melanoma growth and renders melanomas partially resistant to combined MEK and proteasome inhibition. Tumors were harvested at sacrifice and weighed (mean±SD, n=10, ANOVA). (B) CR treatment exacerbates body weight loss in tumor-bearing mice. Body weights were recorded before xenografting and at sacrifice. To derive net body weights of melanoma-bearing mice, tumor weights were subtracted from total body weights. Results are presented as body weight changes before and after xenografting (paired Student's t-test).
# A2058 cells were s.c. injected into the left flanks of 9-week-old female NOD.CB17-Prkdc/J (NOD/SCID) mice (The Jackson Laboratory). For CR treatment, mice were i.p. injected with PBS or CR one day prior to combined AZD6244 and Bortezomib treatments. Tumor volumes were calculated following the formula 4/3πR^3. For experimental metastasis, engineered A2058 cells were transplanted into 10-week-old female NOD/SCID mice via tail vein injections. All mouse experiments were performed under a protocol approved by The Jackson Laboratory Animal Care and Use Committee.
# [1] = test system: ERK complexes precipitated from HEK293T cells; experiment: In vitro kinase assay with immunoprecipitated ERK complexes; type: biochemical; details: 1000 ng MBP
# Method: Co-expressed GFP proteins served as internal controls. […] See also FIG. 10.
# Samples were boiled for 5 min to stop reactions.
# HSF1 Ser326 = HSF1 Ser326 phosphorylation by immunoblotting in HEK293T cells; type: cell-based; details: overnight, 20 μM U0126, 20 nM AZD6244, 1 μM FR180204 or 100 nM Sch772984
# Method: This figure is related to FIG. 3. (A) Validation of phospho-HSF1 Ser326 antibodies. […] (B) MEK blockade impairs HSF1 Ser326 phosphorylation. […] (D-E) S326A mutation impairs HSF1 nuclear translocation. […] (F) Acute MEK depletion diminishes HSF1 proteins. […] HSF1 proteins were detected by immunoblotting. (G) ERK-mediated HSF1 Ser307 phosphorylation depends on MEK. […] Levels of phosphor-HSF1 Ser307 were measured by immunoblotting. (H) HSF1 Ser326 phosphorylation inhibits Ser307 phosphorylation.
# HSF1 = experiment: Dual HSF1 reporter assay (HSE-SEAP / CMV-GLuc) in HEK293T cells; type: cell-based; details: 20 μM U0126, 20 nM AZD6244, 1 μM FR180204 or 100 nM Sch772984
# Method: (A) NIH3T3 cells were treated with HS at 43° C. for 30 min, 10 μM tubastatin A for 5 hr, 40 μM VER155008 for 1 hr, 500 nM MG132 for 1 hr, 200 nM 17-DMAG for 1 hr, and 2.5 mM azetidine for 15 min (B) The dual ELK1 reporter system, comprising a serum response element (SRE)-driven secreted embryonic alkaline phosphatase (SEAP) plasmid and a CMV-driven Gaussia luciferase (GLuc) plasmid, was transfected into HEK293T cells. After 24 hr, cells were treatments as in (A) and recovered overnight before measuring reporter activities (mean±SD, n=6, ANOVA). (C and D) NIH3T3 cells were treated with 20 μM U0126 or 20 nM AZD6244 for 3 hr followed by HS and 4-hr recovery. mRNA levels were quantitated by qRT-PCR (mean±SD, n=3, Student's t-test). (E) Immediately after HS, nuclear proteins of NIH3T3 cells treated as in (C) were extracted to measure HSF1-DNA binding by an ELISA-based assay (mean±SD, n=3, ANOVA). (F) HEK293T cells were transfected with dual HSF1 reporter plasmids, a heat-shock element (HSE)-driven SEAP plasmid and a CMV-GLuc plasmid. […] (G) HEK293T cells were treated with different inhibitors overnight. […] After 24 hr, cells were heat shocked at 43° C. for 30 min followed by overnight recovery (mean±SD, n=3, ANOVA). […]
# FIGS. 8A-H illustrate that MEK and ERK inversely regulate the PSR. […] Cell viability was measured by a Guava EasyCyte™ flow cytometer using Guava ViaCount™ reagents (mean±SD, n=5, Student's t test). […] Levels of ERK1 and ERK2 mRNAs were quantitated in HEK293T cells transfected with ERK1-targeting siRNAs by qRT-PCR (mean±SD, n=3, ANOVA). […] Levels of ERK2 and ERK1 mRNAs were quantitated in HEK293T cells transfected with ERK2-targeting siRNAs by qRT-PCR (mean±SD, n=3, ANOVA).
# Plasmids were transfected with TurboFect transfection reagent (Thermo Scientific). SEAP and luciferase activities in culture supernatants were quantitated using a Ziva® Ultra SEAP Plus Detection Kit (Jaden BioScience) and a Gaussia Luciferase Glow Assay Kit (Thermo Scientific), respectively. Luminescence signals were measured by a VICTORS Multilabel plate reader (PerkinElmer).
# ERK = experiment: Immunoblotting of ERK and MSK1 phosphorylation in HEK293T cells; type: cell-based; details: inhibitors overnight
# Method: Whole-cell protein extracts were prepared in cold cell-lysis buffer (100 mM NaCl, 30 mM Tris-HCl pH 7.6, 1% Triton X-100, 30 mM NaF, 1 mM EDTA, 1 mM sodium orthovanadate, and Halt™ protease inhibitor cocktail from Thermo Scientific). Proteins were separated on SDS-PAGE gels and transferred to nitrocellulose membranes. Primary antibodies were applied in wash buffer overnight at 4° C. Peroxidase-conjugated secondary antibodies were applied at room temperature for 1 hr, and signals were visualized by SuperSignal West chemiluminescent substrate (Thermo Fisher Scientific), followed by exposure to films.
compound,measurement,setting,value
"Nc1c(/N=N/c2ccc(-c3ccc(/N=N/c4cc(S(=O)(=O)O)c5ccccc5c4N)cc3)cc2)cc(S(=O)(=O)O)c2ccccc12 [CR, Congo red]",melanoma growth,A2058 cells; 1 mg/30 g CR i.p.,accelerated
same,tumor suppression imposed by combined MEK and proteasome inhibition,A2058 cells; 1 mg/30 g CR i.p. one day prior to combined treatment,potently antagonized
same,amyloids in tumor tissues,A2058 cells; CR treatment,reduced
same,animal survival,A2058 cells; CR treatment,shortened
same,body conditions,A2058 cells; CR treatment,deteriorated
same,tumor masses,A2058 cells; CR treatment,enlarged
same,ubiquitination in tumors,A2058 cells; CR treatment,did not diminish
same,caspase 3 cleavage in tumors,A2058 cells; CR-treated tumors,reduced
same,penetration of CR into tumor tissues,A2058 cells; absorbance of tumor lysates,intense light absorption of tumor lysates at 498 nm
Nc1[nH]nc2nnc(-c3c(-c4ccccc4)nn4ccccc34)cc12 [FR180204],phosphorylation of myelin basic protein (MBP) by precipitated ERK complexes,[1],blocked
same,HSF1 Ser326 phosphorylation,HSF1 Ser326,enhances
same,transcriptional activation of HSF1,HSF1,activated
same,ERK phosphorylation,ERK,promoted
O=C(Nc1ccc2[nH]nc(-c3ccncc3)c2c1)[C@@H]1CCN(CC(=O)N2CCN(c3ccc(-c4ncccn4)cc3)CC2)C1 [Sch772984],HSF1 Ser326 phosphorylation,HSF1 Ser326,enhances
same,transcriptional activation of HSF1,HSF1,activated
same,ERK phosphorylation,ERK,suppressed
